Our source for the TGI and GI50 values is PubChem BioAssay (NCI).

The structures appear in SMILES notation.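 Five compound concentrations were applied to cells in 96-well plates for 48 hours; endpoints were derived by simple linear interpolation of the resulting dose-response curve. Here, GI50 denotes the concentration required for 50% inhibition of growth. The concentration for full growth arrest is given as TGI.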

Some test systems named below: SF-295 CNS; KM12 colon; T-47D breast; RPMI-8226 leukemia; IGROV1 ovarian; DLD-1 colon; SK-OV-3 ovarian; NCI/ADR-RES ovarian; HOP-92 NSCLC; KM20L2 colon.
Holding throughout (test): NCI tumour cell line growth inhibition, 48 h

Take `N#CC1(C2SCCS2=O)C2=C(C(=O)c3ccccc3C2=O)N2CCCC21` (stereo not drawn): the TGI with SF-295 CNS is 7.82 µM; in the test on KM12 colon, 13.1 µM; in the test with T-47D breast, 8.16 µM; in the test on RPMI-8226 leukemia, 9.91 µM; with IGROV1 ovarian it was 5.76 µM; with DLD-1 colon, 14.1 µM. Besides, the TGI was 51.7 µM in the test with SK-OV-3 ovarian, 10.2 µM with NCI/ADR-RES ovarian, 11.9 µM with HOP-92 NSCLC and 19.3 µM with KM20L2 colon.
As for `N#CC(C(=O)/C(=N/Nc1nc(=S)[nH]n1N)C(C#N)c1ccccc1)c1ccccc1` (stereo not drawn), the TGI with SF-295 CNS, in the test on KM12 colon, in the test on T-47D breast, in the test with RPMI-8226 leukemia, in the test on IGROV1 ovarian and in the test on DLD-1 colon was more than 100 µM throughout. Besides, the TGI in the test on SK-OV-3 ovarian, in the test with NCI/ADR-RES ovarian, with HOP-92 NSCLC and with KM20L2 colon was more than 100 µM throughout.
For the molecule `NC1CCCC[C@H]1N.N[C@@H]1CCCC[C@@H]1N.O=C(P(=O)([O-])[O-])P(=O)([O-])[O-].[Pt+4].[Pt+4]`, the GI50 is 96.7 µM in the test with SF-295 CNS; more than 100 µM in the test with KM12 colon; 31.1 µM with RPMI-8226 leukemia; more than 100 µM in the test on IGROV1 ovarian; more than 100 µM in the test on DLD-1 colon; more than 100 µM in the test with SK-OV-3 ovarian. Moreover, the GI50 with HOP-92 NSCLC and in the test on KM20L2 colon was more than 100 µM each time. Moreover, the TGI in the test on SF-295 CNS, in the test on KM12 colon, in the test on RPMI-8226 leukemia, in the test with IGROV1 ovarian, in the test on DLD-1 colon and in the test on SK-OV-3 ovarian was more than 100 µM throughout. For the same molecule, the TGI with HOP-92 NSCLC and in the test on KM20L2 colon was more than 100 µM in each case.
In the case of `CC(=O)OCC1OC([S-])C(OC(C)=O)C(OC(C)=O)C1OC(C)=O.CC[PH+](CC)CC.CC[PH+](CC)CC.[Au].[Au]` (stereo not drawn), the GI50 was 0.436 µM with SF-295 CNS; 1.04 µM in the test on KM12 colon; 0.138 µM with RPMI-8226 leukemia; 0.306 µM in the test on IGROV1 ovarian; 0.174 µM in the test with DLD-1 colon; 1.68 µM with SK-OV-3 ovarian. In addition, the GI50 was 0.28 µM with HOP-92 NSCLC and 0.792 µM with KM20L2 colon. Further, the TGI in the test with SF-295 CNS was 1.63 µM; with KM12 colon it was 2.66 µM; in the test on RPMI-8226 leukemia, 0.761 µM; in the test with IGROV1 ovarian, 1.09 µM; in the test with DLD-1 colon it was 0.49 µM; in the test on SK-OV-3 ovarian, 3.05 µM. In addition, the TGI in the test with HOP-92 NSCLC was found to be 0.584 µM; in the test on KM20L2 colon it was 2.2 µM.
For `O=C(Nc1ccc([N+](=O)[O-])cc1)C1C(=O)C(=O)N(c2ccc([N+](=O)[O-])cc2)C1=O` (stereo not drawn), the TGI in the test on SF-295 CNS, in the test with KM12 colon, in the test with RPMI-8226 leukemia, in the test with IGROV1 ovarian, in the test on DLD-1 colon and with SK-OV-3 ovarian was more than 100 µM throughout. The TGI with HOP-92 NSCLC and in the test on KM20L2 colon was more than 100 µM in each case.
In the case of `O=C(/C=C/c1ccccc1)/C=C/c1ccccc1`, the TGI with SF-295 CNS was more than 100 µM; in the test with KM12 colon it was 38.2 µM; in the test with RPMI-8226 leukemia, more than 100 µM; with IGROV1 ovarian, 66.5 µM; with DLD-1 colon, 32.5 µM; in the test on SK-OV-3 ovarian it was more than 100 µM. Moreover, the TGI in the test with HOP-92 NSCLC was determined as 88.6 µM; with KM20L2 colon it was 52.5 µM.
